Source: article PMC3699461, “Ground State Destabilization by Anionic Nucleophiles Contributes to the Activity of Phosphoryl Transfer Enzymes” (PLoS Biology, 2013)
“And” between values parts separate entries of the source, which are not always exact repeats. Identical values can stand only once. Like-named read-outs stand apart in the source and are kept apart here.

Columns and labels:
[1] = cited from earlier work
[2] = target: T1, S102G/R166S AP (Escherichia coli, UniProt P00634, R188S/S124G); conditions: Table 2
T1 sequence (P00634 23-471 S124G/R188S): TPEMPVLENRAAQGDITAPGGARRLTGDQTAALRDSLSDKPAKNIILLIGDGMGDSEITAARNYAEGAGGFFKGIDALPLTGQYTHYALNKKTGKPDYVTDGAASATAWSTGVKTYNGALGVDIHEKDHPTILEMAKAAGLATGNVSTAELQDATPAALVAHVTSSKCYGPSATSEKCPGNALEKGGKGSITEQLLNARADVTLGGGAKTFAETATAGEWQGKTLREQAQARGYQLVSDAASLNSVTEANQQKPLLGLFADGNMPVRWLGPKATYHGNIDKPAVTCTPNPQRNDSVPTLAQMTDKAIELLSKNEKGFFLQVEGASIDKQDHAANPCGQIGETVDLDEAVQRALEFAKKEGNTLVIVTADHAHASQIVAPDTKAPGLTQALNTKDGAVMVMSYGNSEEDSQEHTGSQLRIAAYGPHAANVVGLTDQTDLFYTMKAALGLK
From the text: (§1) The following buffers were used over the indicated pH ranges: NaAcetate (4.5–5.5), NaMES (5.5), NaMaleate (6.0–6.5), Tris•HCl (7.0–7.5), NaMOPS (7.0–8.0), NaCHES (8.5–9.0), and NaCAPS (10–10.5).
(§2) The retentate is expected to contain both free and bound ^32Pi. […] Scintillation counting of both the filtrate and retentate was used to measure the concentrations of free and bound ^32Pi at the various AP concentrations, and the fraction ^32Pi bound dependence on the AP concentration was used to determine dissociation constants using a modified binding equation, f bound = (C)×([AP]/([AP]+K [drawing 148] ))+(1–C), where C allows for background levels of apparent binding in the absence of protein.
(§3) To measure the uptake of ^32Pi by the AP sample, the fraction of ^32Pi bound was measured over time starting just after the addition of ^32Pi to the AP samples.

[3] = target: S102G AP (Escherichia coli, UniProt P00634, S124G); conditions: for trianion versus dianion differential affinity: S102G AP, Table 2
S102G AP, sequence (P00634 23-471 S124G): as the sequence (P00634 23-471 S124G/R188S) above, with S166R counted along it
From the text: as §2, §3

[4] = target: T2, WT AP (Escherichia coli, UniProt P00634); conditions: 0.1–10 µM WT AP, standard buffer
T2 sequence (P00634 22-471): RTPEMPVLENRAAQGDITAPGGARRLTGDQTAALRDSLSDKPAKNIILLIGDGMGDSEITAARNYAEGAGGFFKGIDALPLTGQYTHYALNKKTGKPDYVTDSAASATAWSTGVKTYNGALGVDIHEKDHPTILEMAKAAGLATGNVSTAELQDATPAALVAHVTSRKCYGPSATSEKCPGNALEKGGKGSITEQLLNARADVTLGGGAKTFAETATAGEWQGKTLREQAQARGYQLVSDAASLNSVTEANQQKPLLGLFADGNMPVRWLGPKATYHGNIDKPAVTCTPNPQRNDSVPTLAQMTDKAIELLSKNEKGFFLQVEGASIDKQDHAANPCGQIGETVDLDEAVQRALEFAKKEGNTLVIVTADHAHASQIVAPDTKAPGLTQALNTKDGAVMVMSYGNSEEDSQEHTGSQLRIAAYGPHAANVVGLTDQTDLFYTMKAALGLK
From the text: as §1, §2, §3

[5] = target: WT Stp1 (Schizosaccharomyces pombe, UniProt P41893); conditions: pH 6.0, protein up to 500 µM
WT Stp1, sequence (P41893 whole entry): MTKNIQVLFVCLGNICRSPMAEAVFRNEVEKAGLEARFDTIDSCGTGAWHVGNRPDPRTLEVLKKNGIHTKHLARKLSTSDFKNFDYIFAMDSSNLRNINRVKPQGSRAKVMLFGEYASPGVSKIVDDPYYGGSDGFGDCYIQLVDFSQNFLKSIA
From the text: The buffer conditions, pH, and temperature were the same as those for the WT Stp1 kinetic inhibition assays (Figure S14A).
(EPS) Click here for additional data file.

[6] = target: AP with mutation of Arg166; conditions: read-out: Pi binding constant of Arg166 mutants; pH 8.0; cited from earlier work
[7] = target: R166S AP (Escherichia coli, UniProt P00634, R188S); conditions: fit of Figure 4B, two-state model
R166S AP, sequence (P00634 23-471 R188S): as the sequence (P00634 23-471 S124G/R188S) above, with G102S counted along it
Experimental: The tungstate affinity for R166S AP was determined by inhibition of pNPP hydrolysis as was done previously with WT AP [20], but under the standard buffer conditions used in this work. A range of tungstate concentrations was used from at least 5-fold below and above the inhibition constant at each pH.

[8] = target: T1, S102G/R166S AP; conditions: fit of Figure 4B, two-state model
Experimental: (§4) After this first incubation, trace ^32Pi was added and the sample was incubated further to allow ^32Pi binding to complete.

[9] = target: T2, WT AP
Experimental: as §4
A competition-binding assay at pH 8.0 for WT AP (see Materials and Methods for assay details) under the standard buffer conditions.

[10] = ionic strength I = 0.1 for the value 6.9; cited from earlier work
[11] = target: T2, WT AP; conditions: cited from earlier work

## Nc1ncnc2c1ncn2[C@@H]1O[C@H](COP(=O)(O)OP(=O)(O)OP(=O)(O)O)[C@@H](O)[C@H]1O [ATP]
[1]; 25 °C, 44 of the supplement
  kuncat, uncatalyzed hydrolysis: ~ 5×10^-11 M^-1s^-1

## Nc1nc2c(ncn2[C@@H]2O[C@H](COP(=O)(O)OP(=O)(O)OP(=O)(O)O)[C@@H](O)[C@H]2O)c(=O)[nH]1 [GTP]
[1]; 25 °C, 44 of the supplement
  kuncat, uncatalyzed hydrolysis: ~ 5×10^-11 M^-1s^-1

## O=P(O)(O)O [PO4^3-]
[2]
  trianion versus dianion differential affinity: 4.3×10^5 fold
[3]
  trianion versus dianion differential affinity: 10^7 fold
[3]; listed as PO
  trianion versus dianion differential affinity: ~ 10^7 fold
[3]; WT AP versus S102G AP
  destabilization of Pi trianion binding by the Ser102 alkoxide: ≥ 10^8 fold

## O=P(O)(O)O [Pi, inorganic phosphate]
[4]
  observed 32Pi uptake rate constant kobs: ≥ 0.03 s⁻¹
[5]
  Pi binding in the equilibrium-binding assay: No significant Pi binding
[6]
  Ki: 460 µM and 640 µM

## COP(=O)(O)O [methyl phosphate dianion, methyl phosphate]
[1]; 25 °C, 44 of the supplement
  kuncat, uncatalyzed hydrolysis: ~ 4×10^-22 M^-1s^-1
[1]
  kuncat, uncatalyzed hydrolysis: ~4e-22 M⁻¹ s⁻¹

## [O]=[W](=[O])([O-])[O-] [tungstate]
[7]
  pH-independent dissociation constant for tungstate binding: 170±25 µM
[8]
  pH-independent dissociation constant for tungstate binding: 890±90 µM
[9]; equilibrium-binding assay via competition with 32Pi, dashed line
  pH-independent dissociation constant for tungstate dianion binding: 2.06±0.48 µM
[9]; read-out: dissociation constant for tungstate binding, pH 8.0, standard buffer
  Kd: 0.9 ± 0.2 µM
[10]
  solution pKa: ~4
[11]; kinetic inhibition, solid line, data from ref 20
  pH-independent dissociation constant for tungstate dianion binding: 0.57±0.11 µM
[11]; read-out: dissociation constant for tungstate binding, pH 8.0
  Kd: 1.1 µM
